From PMC4363177 (Bioorganic & medicinal chemistry, 2015)

Experiments:
5-HT2A receptor = details: cited from earlier work
[1] = molecular target: human serotonin 5-HT2A receptor (Homo sapiens, UniProt P28223); experiment: Radioligand competitive displacement binding, 5-HT2A
[2] = molecular target: human serotonin 5-HT2B receptor (Homo sapiens, UniProt P41595); experiment: Radioligand competitive displacement binding, 5-HT2B
locomotor activity = details: administered alone; cited from earlier work

Chain of human serotonin 5-HT2A receptor (P28223 whole entry): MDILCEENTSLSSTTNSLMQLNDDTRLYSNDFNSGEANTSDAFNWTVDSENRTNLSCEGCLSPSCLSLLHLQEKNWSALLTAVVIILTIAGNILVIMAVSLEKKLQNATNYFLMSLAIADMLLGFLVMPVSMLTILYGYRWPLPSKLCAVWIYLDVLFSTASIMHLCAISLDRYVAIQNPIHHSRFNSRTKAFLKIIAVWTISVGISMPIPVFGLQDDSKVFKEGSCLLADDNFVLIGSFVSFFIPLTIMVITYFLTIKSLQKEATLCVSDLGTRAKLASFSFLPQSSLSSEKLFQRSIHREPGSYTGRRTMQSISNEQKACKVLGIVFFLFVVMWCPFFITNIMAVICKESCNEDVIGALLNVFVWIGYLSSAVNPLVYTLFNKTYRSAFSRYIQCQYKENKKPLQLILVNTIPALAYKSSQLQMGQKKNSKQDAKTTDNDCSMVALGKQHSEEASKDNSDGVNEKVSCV
Chain of human serotonin 5-HT2B receptor (P41595 whole entry): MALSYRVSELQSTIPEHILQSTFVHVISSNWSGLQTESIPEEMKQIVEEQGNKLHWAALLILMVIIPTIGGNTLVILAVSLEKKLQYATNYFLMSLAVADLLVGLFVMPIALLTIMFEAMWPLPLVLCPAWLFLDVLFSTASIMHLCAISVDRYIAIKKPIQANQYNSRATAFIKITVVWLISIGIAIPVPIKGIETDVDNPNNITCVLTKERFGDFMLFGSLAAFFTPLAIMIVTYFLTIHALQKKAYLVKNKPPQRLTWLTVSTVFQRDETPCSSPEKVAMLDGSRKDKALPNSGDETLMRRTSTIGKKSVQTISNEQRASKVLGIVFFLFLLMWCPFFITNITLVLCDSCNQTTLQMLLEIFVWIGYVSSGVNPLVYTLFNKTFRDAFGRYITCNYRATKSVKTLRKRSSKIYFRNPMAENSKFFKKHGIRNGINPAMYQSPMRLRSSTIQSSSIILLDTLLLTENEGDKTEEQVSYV

SMILES: CN(C)[C@@H]1Cc2ccccc2[C@@H](c2ccccc2)C1 (relative stereo) [(−)-trans-PAT, (2S, 4R)-(−)-trans-4-phenyl-N,N-dimethyl-1,2,3,4-tetrahydronaphthalen-2-amine]
- functional activity at 5-HT2A receptors (5-HT2A receptor): inverse agonist (and competitive antagonist) activity

SMILES: CN(C)[C@@H]1Cc2ccccc2[C@@H](c2ccccc2)C1 [(+)-trans-PAT, trans-4-phenyl-N,N-dimethyl-1,2,3,4-tetrahydronaphthalen-2-amine]
- Ki [1]: 470 nM
- Ki [2]: 240 nM

SMILES: CN1CCN(C2=Nc3cc(Cl)ccc3Nc3ccccc32)CC1 [clozapine]
- effect on locomotor activity (locomotor activity): suppressed locomotor activity
